Test results from patent US20250346643A1, “TROPOMYOSIN KINASE RECEPTOR (TRK) LIGANDS AS THERAPEUTICS TO SUPPORT LIVER REGENERATION” (Vanderbilt University, priority 2024, published 2025).

Tested on: CCND1 and PCNA
Experiment: Immunoblotting of HDOs for CCND1 and PCNA
Assay type: cell-based, human
Conditions: NTF3
Description: Human ductal organoids. The normal human liver tissue was obtained through the Cooperative Human Tissue Network (CHTN) at Vanderbilt University Medical Center. The liver was cut into very small pieces in liver digestion medium (Gibco, Waltham, MA; 17703-034). The cell suspension was filtered through a 100-μm cell strainer. The flow through was then centrifuged for 2 min at 100 g, 4° C., and the cell pellet resuspended in ice-cold DMEM (Gibco, Waltham, MA; 11885-084, supplemented by 5% FBS) and centrifuged for 2 min at 300 g. The cell pellet was gently resuspended in Matrigel® (Corning, Corning, NY; 356231) and a […] dome plated in a 24-well plate. The plate was incubated for 10-15 min at 37° C. […]
Immunoblotting. […] Protein concentration of supernatants was determined by Direct Detect Spectrophotometer (MilliporeSigma, Burlington, MA). […] The protein concentration of supernatants was determined by a Direct Detect® spectrophotometer (MilliporeSigma, Burlington, MA). For immunoblot analysis, 10 to 50 μg of protein diluted in […] sample buffer (Invitrogen, Waltham, MA) were analyzed per SDS-polyacrylamide gel electrophoresis (NuPAGE™, Invitrogen, Waltham, MA) using Mops buffer or MES buffer (Invitrogen, Waltham, MA). […] Semi-quantitative band densitometry was performed using ImageJ software (version 1.53).

NTF3: neurotrophin-3, recombinant protein; HSC-derived hepatocyte mitogen, ligand of TRKA, TRKB, TRKC
CCND1 and PCNA (immunoblotting): induced CCND1 and PCNA
